# How the values were obtained:
# [1] = system: CMT93 (mice colorectal cancer) allograft tumors; set-up: method as in PMID 19569179; conditions: 30 min post-injection; cited from earlier work
# [2] = system: bone marrow polychromatic erythrocytes; assay: Genotoxicity, bone marrow micronucleus assay; conditions: 24 h, per 2000 PCEs (vehicle 7 ± 2)
# Protocol: The test compounds were intraperitoneally administered once, as a solution, at a concentration of 15 mg/kg of 5-fluorouracil (5-Fu) and 30 mg/kg of C19 or I-C19. Bone marrow cells were obtained 24 h after treatment and stained with Giemsa-Wright (Diff-Quick; Harleco; Gibbstown, NJ, USA). Two-thousand polychromatic erythrocytes were counted per animal using an optical microscope at 100× magnification to determine the number of micronucleated polychromatic erythrocytes.
# [3] = system: colon adenocarcinoma; assay: AOM/DSS colorectal cancer mouse model; type: in vivo, C57BL/6 male mice; conditions: AOM/DSS mice
# Protocol: Aberrant glands formed these lesions, and the cells that formed them presented atypical nuclei with evident nucleoli and loss of mucus production. The percentage of mice colorectal tissue affected with these lesions was considered as the percentage of colon adenocarcinoma in mice.
# Six-week-old C57BL/6 male mice, with a weight of approximately 20 g, were intraperitoneally injected with a single dose of azoxymethane (AOM) (10 mg/kg). […] For the control group, the same procedure was performed with normal intraperitoneal saline and pure drinking water instead of the AOM/DSS treatment.
# Paraffin sections of colon tumor samples were deparaffinized in xylene and rehydrated in a series of graded alcohols. Antigens were retrieved in 0.01 M sodium citrate buffer and 0.1M EDTA-Tris buffer (Novocastra™ Epitope Retrieval Solutions, cat. RE7113; Leica Biosystems). Samples were incubated in 0.9% H2O2 for 5 min, followed by 1 h of blocking in 1% BSA in PBS. […] Then, the samples were developed with the Betazoid DAB Chromogen Kit (Cat. BDB2004H; BIOCARE Medical), counter-stained with hematoxylin and mounted with synthetic resin solution (Entallan.107960; Merck).
# [4] = system: CCD-18Co; set-up: method as in PMID 30382908; conditions: CCD-18Co healthy cell line; cited from earlier work
# [5] = system: γ-H2AX foci in SW620; assay: DNA double-stranded breaks, γ-H2AX foci assay; type: cell-based, human; conditions: SW620, 6.8 µM, 3 h
# Protocol: (§1) For the evaluation of DNA double-stranded breaks (DSBs), the phosphorylation of the Ser-139 gamma histone variant H2AX (γH2AX) was used as a biomarker. Cells, diluted to a suitable concentration, were grown on a glass slide after exposure to I-C19 or ^131I-labeled C19 (1.8, 6.8 and 8.8 µM for the cell lines LoVo, SW620 and HCT116, respectively) for 3 h. The anti-phospho-histone H2A.X (ser139) (1:200; CST, Boston, MA, USA) antibody was used as the primary antibody. The Alexa-488-conjugated anti-rabbit IgG was used for the visualization of γH2AX. […] To quantify the foci, clear and easily distinguishable dots were counted. At least 30 cells were imaged per slide, and the average number of foci per cell was calculated.
# [6] = system: γ-H2AX foci in HCT116; assay: DNA double-stranded breaks, γ-H2AX foci assay; type: cell-based, human
# Protocol: as §1
# [7] = system: γ-H2AX foci in LoVo; assay: DNA double-stranded breaks, γ-H2AX foci assay; type: cell-based, human; conditions: 1.8 µM, 3 h
# Protocol: as §1
# [8] = system: colorectal cancer cell lines; assay: Cell uptake, initial; type: cell-based, human; conditions: before the 3 h increase
# Protocol: (§2) The HCT116, LoVo and SW620 cells were seeded in 48-well tissue culture plates at a density of 10^5 cells/well. After 24 h, the cells were exposed to 1.44 Bq/cell of ^131I-C19 (200 μL) at 37 °C for 1, 3 and 5 h. After treatment, two washes (1 mL of ice-cold PBS) were performed. For the calculation of the cell uptake, the cells in each well were treated (at room temperature for 5 min) with 500 μL of glycine buffer (50 mM, pH 2.8). Then, this fraction was removed, and the radioactivity was measured in a NaI (Tl) detector (BCL, San Rafael CA, USA). To evaluate the ^131I-C19 internalization, the cells were incubated with 1 mL of NaOH 0.3 M (at room temperature for 10 min). Once more, the radioactivity was measured in a NaI (Tl) detector (BCL, San Rafael CA, USA). A 100% standard solution (200 μL) of ^131I-C19 was also measured (n = 5). The uptake (%) (plasmatic membrane) and internalization (%) (cytoplasm) were used to obtain the radiation absorbed dose.
# [9] = system: LoVo; assay: XTT cell viability; type: cell-based, human; conditions: 1.8 µM, 1.44 Bq/cell, 72 h
# Protocol: (§3) The human CRC cell lines, LoVo (ATCC® CCL-229™), SW620 (ATCC® CCL-227™) and HCT116 (ATCC® CCL-247™), were acquired from ATCC and cultured in F12K medium (Kaighn’s Modification of Ham’s F-12 Medium), DMEM-F12 medium and RPMI-1640 medium, (ATCC, Manassas, VA, USA), respectively. The human colorectal fibroblast CCD-18Co line was grown in an EMEM medium (ATCC, Manassas, VA, USA). The media were added with 10% fetal bovine serum and a 1% penicillin/streptomycin solution. Cells were incubated at 37 °C in a humidified atmosphere of 5% CO2.
# (§4) The CCD-18Co, SW620, LoVo and HCT116 cell lines were plated in 96-well plates at a density of 10^4 cells/well for 24 h to allow for adherence. Then, the cells were treated with the I-C19 compound for 72 h. Cell viability was evaluated by the XTT (2,3-bis[2-methoxy-4-nitro-5-sulfophenyl]-2H-tetrazolium-5-carboxyanilide) assay kit (Roche, Germany), based on to the manufacturer’s instructions. The required I-C19 concentration, which produced fifty percent cell death at 72 h, was calculated by fitting a model with Prism software (GraphPad Software, San Diego, CA, USA).
# (§5) For the assessment of dual therapy, beta radiation emission from ^131I-labeled C19 was also evaluated. The mitochondrial dehydrogenase activity in living HCT116, LoVo and SW620 cells was considered to measure the contribution of ^131I beta radiation to cell death, and the cell viability analysis was carried out after exposure to concentrations ten times lower than the IC50 obtained for each cancer cell line (8.8, 1.8 and 6.8 µM, respectively). Cell viability was evaluated by the XTT (2,3-bis[2-methoxy-4-nitro-5-sulfophenyl]-2H-tetrazolium-5-carboxyanilide) assay kit (Roche, Germany), based on to the manufacturer’s instructions. Briefly, colorectal cancer cell lines at a density of 10^4 cells/well were seeded in 96-well microtiter plates. The viability after treatment was measured 72 h (incubation in 5% CO2, 85% humidity and 37 °C). The absorbance in each well was recorded in a microplate reader (Epoch; BioTek Instruments; Winooski, VT, USA) at 450 nm. […]
# [10] = system: HCT116; assay: XTT cell viability; type: cell-based, human; conditions: HCT116, 8.8 µM, 1.44 Bq/cell, 72 h
# Protocol: as §3, §4, §5
# [11] = system: SW620; assay: XTT cell viability; type: cell-based, human; conditions: SW620, 6.8 µM, 1.44 Bq/cell, 72 h
# Protocol: as §3, §4, §5
# [12] = system: LoVo; assay: Cell uptake, internalization and radiation absorbed dose to the nucleus; type: cell-based, human; conditions: for total uptake in the cell membrane (of the total radioactivity): 1.44 Bq/cell
# Protocol: as §2
# (§6) For estimation of the radiation absorbed doses to the HCT116, LoVo and SW620 cells’ nuclei, Equation (1) was used:(1) DN←source=(NCS×DFN←CS)+(NCy×DFN←Cy) where DN←source denotes the mean absorbed dose to the nucleus from source regions (i.e., cell surface—CS; cytoplasm—Cy); NCS and NCy are the total nuclear transformations occurring in the membrane and cytoplasm, respectively, calculated from the mathematical integration (from t = 0 to t = ∞) of the activity estimated in the internalization and cell uptake experiments; DFN←CS and DFN←Cy represent the dose factors specific for [^131I] from the cell surface (plasmatic membrane) and cytoplasm regions to the nucleus configuration. The dose factor geometries were obtained from S values (HCT116 cell radius = 10 μm, nucleus radius = 5 μm; LoVo and SW620 cell radius = 10 μm, nucleus radius = 6 μm).
# [13] = system: HCT116; assay: as above; type: cell-based, human; conditions: for total uptake in the cell membrane (of the total radioactivity): 1.44 Bq/cell
# Protocol: as §2, §6
# [14] = system: SW620; assay: as above; type: cell-based, human; conditions: for total uptake in the cell membrane (of the total radioactivity): 1.44 Bq/cell
# Protocol: as §2, §6
# [15] = Biodistribution and biokinetic models; type: in vivo, Nu/Nu mice with LoVo xenograft tumors
# Protocol: ^131I-C19 was intraperitoneally injected (200 µL, 5 MBq (135 µCi/mice)) into nu/nu mice. The mice (n = 3) were euthanized at 0.5, 1, 3, 5, 24, 48, 92 and 144 h post-injection. Whole tumor, lung, liver, pancreas, spleen, kidney, large intestine (colon) and blood were rinsed and placed into pre-weighed plastic test tubes. The activity was determined in a NaI(Tl) detector (Canberra) along with three 0.5 mL aliquots of the diluted standard, representing 100% of the injected activity and used for radioactive decay correction. Mean activity values in each organ were correlated with those of the standard (representing the initial injected activity) to obtain the percentage of injected dose (% ID) at different times. The % ID values of each organ or tumor were input into the Olinda/EXM 2.0 software and adjusted to exponential functions (first-order kinetics) to obtain biokinetic models corrected by radioactive decay ( qh(t) ) (Equation (2)), which corresponded to the I-C19 compound. Likewise, the Ah(t) functions, which corresponded to the ^131I-C19 biokinetic models, were obtained considering λeff as =λB+λR , where the biological constant is represented by λB and the ^131I − radioactive decay constant is λR (Equation (3)). (2) qh(t)=Ah(t)×e^λR = Be^(−λBb)t+Ce^(−λBc)t+De^(−λBd)t (3) Ah(t)=Be^−(λBb+λR)t+Ce^−(λBc+λR)t+De^−(λBd+λR)t
# [16] = system: micronuclei; conditions: mice, 30 mg/kg; cited from earlier work
structure (smiles),measurement,setting,value
[125I-].[Na+] [Na[^125I]],activity in tumor tissue,[1],9.1 % ID/g
"COc1ccc(CN[C@@H](C)C(=O)Nc2cc(Cl)ccc2Cl)cc1OC [C19, (2S)-N-(2,5-dichlorophenyl)-2-[(3,4-dimethoxyphenyl)methylamine]propanamide]",frequency of micronucleated polychromatic erythrocytes (MNPCEs),"[2]; 30 mg/kg single intraperitoneal injection, not significant",12 ± 1
same,percentage of colon adenocarcinoma,[3]; 30 mg/kg intraperitoneally every day for 12 days (vehicle 7–8%),5–6%
same,"CEA marker, IHC","[3]; 30 mg/kg, 12 days (vehicle 65%)",12.5 % of neoplastic tissue
same,IC50,[4],60.8 µM
COc1ccc(CNC(C)C(=O)Nc2cc([131I])ccc2[131I])cc1OC (stereo not drawn) [^131I-C19],"γ-H2AX foci increase, ^131I-C19 vs. I-C19 at the same concentration",[5],2.3 times
same,"γ-H2AX foci, ^131I-C19 vs. I-C19 at the same concentration","[6]; HCT116, 8.8 µM, 3 h",almost three times more γ-H2AX foci
same,level of DSBs relative to the control,"[6]; HCT116, exposure to ^131I beta radiation",six times higher than the control
same,"γ-H2AX foci increase, ^131I-C19 vs. I-C19 at the same concentration",[7],2.1 times
same,initial uptake,[8],3.28–3.6%
same,cell viability compared to unlabeled I-C19 at the same concentration,[9],viability significantly decreased
same,cell viability compared to unlabeled I-C19 at the same concentration,[10],viability significantly decreased
same,cell viability compared to unlabeled I-C19 at the same concentration,[11],viability significantly decreased
same,internalized activity into the cytoplasm,[12]; 3 h,2.90 ± 0.82%
same,total uptake in the cell membrane (of the total radioactivity),[12]; 3 h,40.2 ± 6.4%
same,internalized activity into the cytoplasm,[12]; 5 h,0.30 ± 0.04%
same,total uptake in the cell membrane (of the total radioactivity),[12]; 5 h,1.80 ± 0.18%
same,internalized activity into the cytoplasm,"[13]; HCT116, 3 h",2.45 ± 0.21%
same,total uptake in the cell membrane (of the total radioactivity),"[13]; HCT116, 3 h",43.6 ± 4.7%
same,internalized activity into the cytoplasm,"[13]; HCT116, 5 h",1.63 ± 0.05%
same,total uptake in the cell membrane (of the total radioactivity),"[13]; HCT116, 5 h",1.63 ± 0.34%
same,internalized activity into the cytoplasm,"[14]; SW620, 3 h",2.66 ± 0.30%
same,total uptake in the cell membrane (of the total radioactivity),"[14]; SW620, 3 h",45.6 ± 6.7%
same,internalized activity into the cytoplasm,"[14]; SW620, 5 h",1.44 ± 0.14%
same,total uptake in the cell membrane (of the total radioactivity),"[14]; SW620, 5 h",25.62 ± 4.71%
same,activity concentration in the tumor tissue,"[15]; LoVo tumor, after 1 h",4.4 % ID/g
same,route of excretion,"[15]; biodistribution, 5 MBq intraperitoneal",renal and hepatobiliary excretion
same,remaining fraction of activity cleared slowly from the blood,"[15]; intraperitoneal, fitted biexponential model",10.2%
"O=P1(N(CCCl)CCCl)NCCCO1 (stereo not drawn) [CP, Cyclophosphamide]",induction of micronuclei,[16],strong
"O=c1[nH]cc(F)c(=O)[nH]1 [5-Fu, 5-fluorouracil, reference compound]",frequency of micronucleated polychromatic erythrocytes (MNPCEs),[2]; 15 mg/kg single intraperitoneal injection,27 ± 4
